Data: patent US20030224942A1, “Alkylamino-1,3,5-triazines, processes for their preparation and their use as herbicides and plant growth regulators” (priority 2001, published 2003)

Legend:
[1] = system: Cyperus spp., Echinochloa spp., Digitaria spp., Sagitaria spp. and Scirpus spp.; assay: Action on harmful plants in rice (paddy rice conditions, visual scoring); type: in vivo, typical rice weeds (gramineous and broad-leaved); conditions: applied into the dammed water, visual scoring about three weeks after application
Method in brief: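 Under paddy conditions with 2-3 cm dammed water, transplanted and sown rice plus weeds were treated at three-leaf stage (E. crus-galli at 1.5 leaves). Pots stayed in greenhouse under optimum growth conditions for the test period, with visual assessment of damage.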

[2] = system: Chenopodium spp., Papaver spp., Polygonum spp., Veronica spp. or Viola spp.; assay: Post-emergence effect on weeds (greenhouse pot test, visual scoring); type: in vivo, monocotyledonous and dicotyledonous weeds; conditions: treated at three-leaf stage; visual scoring after about 3 to 4 weeks; application rate of 0.5 kg and less of active substance per hectare

| SMILES | herbicidal activity against harmful plants which are typical for rice crops [1] | herbicidal activity post-emergence against harmful plants [2] |
| --- | --- | --- |
| C#Cc1c(F)cc(C(C)Nc2nc(N)nc(C(C)(C)F)n2)cc1F (centres unmarked) [Product P17.352] | very good herbicidal activity | very good herbicidal activity |
| CC#Cc1ccc(C(Nc2nc(C)nc(N)n2)C2CC2)cc1 (centres unmarked) [Product P4.1583] | very good herbicidal activity | very good herbicidal activity |
| Cc1nc(N)nc(NC(C)c2ccc(F)c(C(F)=C(F)F)c2)n1 (centres unmarked) [Product P2.5] | very good herbicidal activity | very good herbicidal activity |
| C#Cc1cc(C(Nc2nc(N)nc(C(C)(C)F)n2)C2CC2)ccc1F (centres unmarked) [Product P19.309] | very good herbicidal activity | very good herbicidal activity |
| CC(F)c1nc(N)nc(NCc2ccc(C3CC3)cc2)n1 (centres unmarked) [Product P21.1604] | very good herbicidal activity | very good herbicidal activity |
| CC(C)(F)c1nc(N)nc(NC(c2ccc(C3CC3)cc2)C2CC2)n1 (centres unmarked) [Product P19.1604] | very good herbicidal activity | very good herbicidal activity |
| CCC(F)c1nc(N)nc(NC(C)c2ccc(C(F)=C(F)F)cc2)n1 (centres unmarked) [Product P27.1568] | very good herbicidal activity | very good herbicidal activity |
| CCc1nc(N)nc(NCc2cccc(C(F)=C(F)F)c2)n1 [Product P6.1567] | very good herbicidal activity | very good herbicidal activity |
| CCC(F)c1nc(N)nc(NC(C)c2ccc(C#CC(C)O)cc2)n1 (centres unmarked) [Product P27.1601] | very good herbicidal activity | very good herbicidal activity |
| C#Cc1cccc(C(C)Nc2nc(N)nc(C(F)CC)n2)c1 (centres unmarked) [Product P27.1579] | very good herbicidal activity | very good herbicidal activity |
| CCC(F)c1nc(N)nc(NCc2cccc(C3CC3)c2)n1 (centres unmarked) [Product P26.1603] | very good herbicidal activity | very good herbicidal activity |
| C#Cc1ccc(C(C)Nc2nc(N)nc(C(C)(C)F)n2)cc1C (centres unmarked) [Product P17.335] | very good herbicidal activity | very good herbicidal activity |
| CC(F)C#Cc1cccc(C(C)Nc2nc(N)nc(C(C)(C)F)n2)c1 (centres unmarked) [Product P17.1597] | very good herbicidal activity | very good herbicidal activity |
| C#Cc1cc(CNc2nc(C)nc(N)n2)ccc1F [Product P1.309] | very good herbicidal activity | very good herbicidal activity |
| CCC(F)c1nc(N)nc(NC(C)c2cccc(C3CC3)c2)n1 (centres unmarked) [Product P27.1603] | very good herbicidal activity | very good herbicidal activity |
| C#Cc1cc(C(C)Nc2nc(N)nc(C(F)CC)n2)ccc1F (centres unmarked) [Product P27.309] | very good herbicidal activity | very good herbicidal activity |
| CC(Nc1nc(N)nc(C(C)(C)F)n1)c1ccc(F)c(C(F)=C(F)F)c1 (centres unmarked) [Product P17.5] | very good herbicidal activity | very good herbicidal activity |
| C#Cc1cc(C(Nc2nc(C)nc(N)n2)C2CC2)ccc1F (centres unmarked) [Product P4.309] | very good herbicidal activity | very good herbicidal activity |
| C#Cc1ccc(C(C)Nc2nc(N)nc(C(C)F)n2)cc1 (centres unmarked) [Product P22.1580] | very good herbicidal activity | very good herbicidal activity |

| SMILES | herbicidal activity against harmful plants which are typical for rice crops [1] | herbicidal activity post-emergence against harmful plants [2] |
| --- | --- | --- |
| C#Cc1cccc(C(C)Nc2nc(N)nc(C(C)C)n2)c1 (centres unmarked) [Product P12.1579] | very good herbicidal activity | very good herbicidal activity |
| C#Cc1c(F)cc(CNc2nc(C)nc(N)n2)cc1F [Product P1.352] | very good herbicidal activity | very good herbicidal activity |
| Cc1nc(N)nc(NCc2cccc(C(F)=C(F)F)c2)n1 [Product P1.1567] | very good herbicidal activity | very good herbicidal activity |
| CC#Cc1ccc(C(Nc2nc(N)nc(C(C)C)n2)C2CC2)cc1 (centres unmarked) [Product P14.1583] | very good herbicidal activity | very good herbicidal activity |
| C#Cc1ccc(CNc2nc(N)nc(CC)n2)cc1 [Product P6.1580] | very good herbicidal activity | very good herbicidal activity |
| CC#Cc1c(F)cc(C(C)Nc2nc(N)nc(CC)n2)cc1F (centres unmarked) [Product P7.428] | very good herbicidal activity | very good herbicidal activity |
| C#Cc1cccc(CNc2nc(N)nc(C(C)(C)F)n2)c1 [Product P16.1579] | very good herbicidal activity | very good herbicidal activity |
| C#Cc1cc(C(C)Nc2nc(N)nc(C(C)F)n2)ccc1F (centres unmarked) [Product P22.309] | very good herbicidal activity | very good herbicidal activity |
| C#Cc1c(F)cc(C(Nc2nc(N)nc(CC)n2)C2CC2)cc1F (centres unmarked) [Product P9.352] | very good herbicidal activity | very good herbicidal activity |
| CC(C)(F)c1nc(N)nc(NC(c2cccc(C(F)=C(F)F)c2)C2CC2)n1 (centres unmarked) [Product P19.1567] | very good herbicidal activity | very good herbicidal activity |
| CC(F)c1nc(N)nc(NC(C)c2ccc(F)c(C(F)=C(F)F)c2)n1 (centres unmarked) [Product P22.5] | very good herbicidal activity | very good herbicidal activity |
| CC(C)(F)c1nc(N)nc(NCc2ccc(F)c(C3CC3)c2)n1 [Product P16.916] | very good herbicidal activity | very good herbicidal activity |
| CC#Cc1cc(C(Nc2nc(N)nc(C(C)C)n2)C2CC2)ccc1F (centres unmarked) [Product P14.384] | very good herbicidal activity | very good herbicidal activity |
| CC(C)(F)c1nc(N)nc(NCc2ccc(C(F)=C(F)F)cc2)n1 [Product P16.1568] | very good herbicidal activity | very good herbicidal activity |
| CC#Cc1c(F)cc(CNc2nc(C)nc(N)n2)cc1F [Product P1.428] | very good herbicidal activity | very good herbicidal activity |
| C=C=Cc1c(F)cc(C(C)Nc2nc(N)nc(CC)n2)cc1F (centres unmarked) [Product P7.656] | very good herbicidal activity | very good herbicidal activity |
| Cc1nc(N)nc(NC(C)c2cccc(C3CC3)c2)n1 (centres unmarked) [Product P2.1603] | very good herbicidal activity | very good herbicidal activity |
| CC(F)c1nc(N)nc(NC(c2cccc(C3CC3)c2)C2CC2)n1 (centres unmarked) [Product P24.1603] | very good herbicidal activity | very good herbicidal activity |
